According to patent publication US20130303500A1, “COMPOUNDS AND METHODS FOR TREATING NEOPLASIA” (Medexis S.A., priority 2010, published 2013):
pIC50: −log10 of the molar value.

How the values were obtained:
[1] = biological target: Na+/K+-ATPase (Adenosine 5′-Triphosphatase isolated from porcine cerebral cortex); experiment: Na+/K+-ATPase inhibitory activity, colorimetric Adenosine 5′-Triphosphatase Enzymatic Assay (Sigma); type: biochemical; conditions: enzyme from porcine cerebral cortex, 0.5 units/ml
Description: The compound inhibitory effect on ATPase activity was assessed in vitro using the colorimetric Adenosine 5′-Triphosphatase Enzymatic Assay of Sigma (St. Louis, Mo.) according to the manufacturer's instructions. This assay utilizes Adenosine 5′-Triphosphatase isolated from porcine cerebral cortex. Each reaction was performed in a final volume of […] using 0.5 units/ml enzyme in the presence of the different inhibitors. […] IC50 values were determined using the Origin® program software (OriginLab, Northampton, Mass.).

A549 (Lung) cells = experiment: Sulforhodamine B (SRB) assay, A549; type: cell-based; conditions: Homo sapiens; for CC50: A549, 48 h, read-out: LC50; for GI50 / IC (TGI): A549 Lung, SRB, 48 h
Description: (§1) Sulforhodamine B (SRB) assays were performed according to standard National Cancer Institute Guidelines. Briefly, human tumor cells from different cancer panels were seeded into 96 well plates in […] (plating densities ranging from 5-40,000 cells/well depending on the doubling time of individual cell lines) in serum-containing media for twenty-four hours prior to the addition of the compounds to be assayed. After 24 hours, one plate of each cell line was fixed in situ with trichloroacetic acid (TCA). The fixed slides were used to determine the cell population for each cell line at the time of drug addition (Tz). Each compound to be tested was solubilized in dimethyl sulfoxide (DMSO) and the desired concentration was then added to the medium and diluted serially 1:10 to provide a total of five or ten drug concentrations plus control (in a final volume of 200 μL). The starting dose before any dilution was 100 uM for all compounds.
(§2) Following drug addition, each culture was incubated for forty-eight hours. The assay was terminated with the addition of cold TCA. The supernatant was discarded, and the plates were washed with tap water and air dried. SRB solution was then added to each well. After staining, the bound stain was solubilized and the absorbance was read on an automated plate reader at a wavelength of 515 nm.
(§3) Using the absorbance measurements [time zero, (Tz), control growth, (C), and test growth in the presence of drug at the ten concentration levels (Ti)], the percentage growth was calculated at each of the drug concentrations levels. Percentage growth inhibition was calculated as:
(§4) [(Ti−Tz)/(C−Tz)]×100 for concentrations for which Ti>/=Tz
(§5) [(Ti−Tz)/Tz]×100 for concentrations for which Ti<Tz.
(§6) Three dose response parameters were calculated for each experimental agent. Growth inhibition of 50% (GI50) was calculated from [(Ti−Tz)/(C−Tz)]×100=50, which was the drug concentration resulting in a 50% reduction in the net protein increase (as measured by SRB staining) in control cells during the drug. The drug concentration resulting in total growth inhibition (TGI) was calculated from Ti=Tz. The LC50 (concentration of drug resulting in a 50% reduction in the measured protein at the end of the drug treatment as compared to that at the beginning) indicating a net loss of cells following treatment was calculated from [(Ti−Tz)/Tz]×100=−50.
(§7) Values were calculated for each of these three parameters when the level of activity was reached; however, if the effect was not reached or was exceeded, the value for that parameter was expressed as greater or less than the maximum or minimum concentration tested.

PC3 (Prostate) cells = experiment: Sulforhodamine B (SRB) assay, PC3; type: cell-based; conditions: Homo sapiens, Prostate cell, 48 h; for CC50: read-out: LC50; for GI50 / IC (TGI): PC3 Prostate, SRB
Description: as §1, §2, §3, §4, §5, §6, §7

SF268 (CNS) cells = experiment: Sulforhodamine B (SRB) assay, SF268; type: cell-based; conditions: Homo sapiens; for CC50: SF-268, 48 h, read-out: LC50; for GI50 / IC (TGI): SF-268, SF268 CNS, SRB, 48 h
Description: as §1, §2, §3, §4, §5, §6, §7

DU145 (Prostate) cells = experiment: MTT cell proliferation/viability assay, DU145; type: cell-based; conditions: Homo sapiens, DU-145, 72 h
Description: (§8) Cell proliferation/viability was assessed by the MTT [3-(4,5-dimethylthiazol-2-yl)-2,5-diphenyltetrazolium bromide] assay, which is commercially available (Sigma, St. Louis, Mo.). Cells were cultured in 96-well plates for twenty-four hours (7-10.000 cells/well) and incubated with various concentrations of the different compounds—as indicated in the Figures—in serum-containing medium (or left untreated) for seventy-two hours. At the end of incubation, the medium was aspirated and MTT dissolved in RPMI 1640 w/o phenol red was added to each well to a final concentration of 0.25 mg/ml. After four hours incubation in the dark (37° C., 5% CO2) the supernatant was discarded. The converted dye (blue formazan crystals) was solubilized by adding 200 μl dimethylsulfoxide to each well. Absorbance was measured at 550 nm with reference at 655 nm using a spectrophotometer with the respective filters. All assays were performed in triplicate.
(§9) The effect of the different compounds on the proliferation and viability of two cancer cell lines (DU145/prostate and CAKI/renal) was tested through quantitative (4,5-dimethylthiazol-2-yl)-2,5-diphenyltetrazolium bromide (MTT) assays.

CAKI (Renal) cells = experiment: MTT cell proliferation/viability assay, CAKI; type: cell-based; conditions: 72 h
Description: as §8, §9

[2] = system: 7 different cell lines (lung, ovarian, prostate, CNS, breast, colon); experiment: SRB assays across 7 cell lines; type: cell-based, human; conditions: for viability and/or cell proliferation of cell lines: cell lines representative of lung, breast, CNS, prostate, ovarian, colon and renal neoplasias
Description: as §1, §2, §3, §4, §5, §6, §7
SRB provides a colorimetric measure of a compound's anti-cancer activity. SRB assays were performed with compounds of the invention in 7 different cell lines, which represent six different tumor panels (lung, ovarian, prostate, CNS, breast, colon).

`C[C@]12CCC(=NOC3CCNC3)CC1C(=O)CC1C2CC[C@]2(C)C(=O)C(F)CC12` (stereo partly drawn) [Compound 4, (10R,13S,16R)-16a-fluoro-10,13-dimethyl-3-((S)-pyrrolidin-3-yloxyimino)-tetradecahydro-14H-cyclopenta[a]phenanthrene-6,17-dione] was tested. Which pIC50 [1] did it give?
Its pIC50 is 6.71.

And the CC50 (A549 (Lung) cells)?
The CC50 was 1.01 µM.

And the GI50 (A549 (Lung) cells)?
The GI50 was 0.43 µM.

And the IC (TGI) (A549 (Lung) cells)?
Its IC (TGI) is 0.723 µM.

What about the CC50 (PC3 (Prostate) cells) of the same molecule?
Its CC50 is 8.04 µM.

What about the GI50 (PC3 (Prostate) cells) of the same molecule?
Its GI50 is 0.731 µM.

What about the IC (TGI) (PC3 (Prostate) cells) of the same molecule?
The IC (TGI) was 3.24 µM.

And the CC50 (SF268 (CNS) cells)?
The CC50 was 6.98 µM.

What about the GI50 (SF268 (CNS) cells) of the same molecule?
The GI50 was 0.277 µM.

What about the IC (TGI) (SF268 (CNS) cells) of the same molecule?
Its IC (TGI) is 0.782 µM.

What about the pIC50 (DU145 (Prostate) cells) of the same molecule?
The pIC50 was 5.57.

What about the pIC50 (CAKI (Renal) cells) of the same molecule?
The pIC50 was 5.30.

What about the GI50 ([2]; Homo sapiens, SRB, average over cell lines) of the same molecule?
Its GI50 is < 1 µM.

What about the “viability and/or cell proliferation of cell lines” value [2] of the same molecule?
Its value is “reduced the viability and/or cell proliferation”.

Which results are given for `CC(=O)OC[C@]12CCC(=NO[C@@H]3CCNC3)C[C@@H]1CCC1C2CC[C@]2(C)C(=O)CCC12` (stereo partly drawn) [Compound 48, ((5S,10R,13S)-13-methyl-17-oxo-3-((R)-pyrrolidin-3-yloxyimino)-hexadecahydro-1H-cyclopenta[a]phenanthren-10-yl)methyl acetate]?
pIC50 [1]: 5.54; CC50 (A549 (Lung) cells): 102 µM; GI50 (A549 (Lung) cells): 6.31 µM; IC (TGI) (A549 (Lung) cells): 38300 µM; CC50 (PC3 (Prostate) cells): > 100 µM; GI50 (PC3 (Prostate) cells): 8.77 µM; IC (TGI) (PC3 (Prostate) cells): > 100 µM; CC50 (SF268 (CNS) cells): 101 µM; GI50 (SF268 (CNS) cells): 11.5 µM; IC (TGI) (SF268 (CNS) cells): 56400 µM; pIC50 (DU145 (Prostate) cells): 4.94; pIC50 (CAKI (Renal) cells): 4.38; GI50 action in most cell lines ([2]; SRB, most cell lines): single-digit micromolar; viability and/or cell proliferation of cell lines [2]: reduced the viability and/or cell proliferation
